Results on 1 compound are retold here after patent publication US12377112B2, “Methods of treating neurocognitive disorders, chronic pain and reducing inflammation” (priority 2019, dated 2025).

The subject of one assay is healthy participants. The experiment in a line: Phase 1 study: Rapid Visual Information Processing (RVPA). Type of assay: in vivo, human. The conditions noted are these: Treatment V6 Day 28 (remote). An excerpt:
In some embodiments, the Rapid Visual Information Processing (RVP) test is utilized to evaluate the safety and efficacy of psilocybin. The RVP is a measure of sustained attention outputting measures of response accuracy, target sensitivity and reaction times. In this test, the study subject is required to monitor a stream of digits from 2 to 9 for specific sequences (e.g., 3-5-7) and to acknowledge detection of the sequence by touching the on-screen response button as quickly as possible after presentation of the third digit. Digits are presented pseudorandomly to create the possibility of ‘false alarm’ responses in which the first 2 digits of a sequence are not followed by a true target, e.g., when 3 is followed by a 5, but not then by a 7. In order to complete the task successfully study subjects must sustain attention to the white box in which the digits appear. Performance on this task is measured by the speed of response to the presentation of the final digit of a target, as well as the study subject's ability to detect specified sequences. […]
To assess the effects of psilocybin on cognitive processing, a clinical trial testing psilocybin in healthy participants was performed. […] Rapid visual information processing (RVP), a sensitive measure of sustained attention, was assessed twice prior to dosing (Day 0): during screening (Day −2) and at baseline (Day −1). […]

The next assay has as its system mice. The experiment in a line: Haloperidol-induced catalepsy model. Format: in vivo, mouse. The conditions noted are these: for Haloperidol-induced catalepsy (significantly reduced): FIG. 17 (24 hours after administration). On the procedure:
The potential anti-akinetic effect of psilocybin in mice was investigated. Psilocybin (1 mg/kg, 3 mg/kg, or 10 mg/kg), chlorstyril caffeine (CSC), or vehicle was administered one hour, 24 hours, or one week prior to administration of haloperidol.
After administration of haloperidol, a catalepsy test was administered to each mouse. During the test, the forelimbs of the mice were placed on a catalepsy apparatus. The latency time was defined as the time necessary for the mouse to put the forelimbs on the table. The cut off time was set as 3 minutes. Catalepsy was evaluated every 45 minutes for 270 minutes after the Haloperidol injection.

Turning to `CN(C)CCc1c[nH]c2cccc(OP(=O)(O)O)c12` [Psilocybin, psilocybin], the “RVPA difference of least squares mean compared to placebo group, LS mean Estimate” value in the assay on healthy participants (10 mg single oral) was 0.01096; with healthy participants (25 mg single oral) it was 0.01225. In addition, the “Haloperidol-induced catalepsy (significantly reduced)” value came out at 90 s in the assay on mice (1 mg/kg), 60 s with mice (3 mg/kg) and 75 s with mice (10 mg/kg). Moreover, the “Start of positive effect on catalepsy after haloperidol” value in the assay on mice (1 mg/kg, FIG. 18 (24 hours after administration)) was found to be 135 min; in the assay on mice (10 mg/kg, FIG. 18 (24 hours after administration)), 90 min. Also, the “Time after haloperidol injection of decrease in descent latency” value in the assay with mice (1 mg/kg, one hour prior to the test) amounted to 270 min. Further, the “Time after haloperidol from which descent latency is significantly decreased” value with mice (3 mg/kg, 1 week prior to the test) was no less than 224 min. Besides, the “Start of reduction in descent latency after haloperidol, lasting to 270 minutes” value with mice (3 mg/kg, FIG. 18 (24 hours after administration)) turned out to be 45 min. Besides, the “Time after haloperidol injection from which descent latency is significantly decreased” value with mice (3 mg/kg, one hour prior to the test) is no less than 225 min; with mice (10 mg/kg, one hour prior to the test), no less than 180 min.
